Experiments:
[1] = target: T1, recombinant human FAP protein (Homo sapiens, UniProt Q12884); test: Biacore SPR binding affinity measurement; conditions: read-out: KD (equilibrium dissociation constant)
T1 construct: purchased Sino Biological Inc., Beijing, China 10464-H07H
T1 sequence (Q12884 1-760): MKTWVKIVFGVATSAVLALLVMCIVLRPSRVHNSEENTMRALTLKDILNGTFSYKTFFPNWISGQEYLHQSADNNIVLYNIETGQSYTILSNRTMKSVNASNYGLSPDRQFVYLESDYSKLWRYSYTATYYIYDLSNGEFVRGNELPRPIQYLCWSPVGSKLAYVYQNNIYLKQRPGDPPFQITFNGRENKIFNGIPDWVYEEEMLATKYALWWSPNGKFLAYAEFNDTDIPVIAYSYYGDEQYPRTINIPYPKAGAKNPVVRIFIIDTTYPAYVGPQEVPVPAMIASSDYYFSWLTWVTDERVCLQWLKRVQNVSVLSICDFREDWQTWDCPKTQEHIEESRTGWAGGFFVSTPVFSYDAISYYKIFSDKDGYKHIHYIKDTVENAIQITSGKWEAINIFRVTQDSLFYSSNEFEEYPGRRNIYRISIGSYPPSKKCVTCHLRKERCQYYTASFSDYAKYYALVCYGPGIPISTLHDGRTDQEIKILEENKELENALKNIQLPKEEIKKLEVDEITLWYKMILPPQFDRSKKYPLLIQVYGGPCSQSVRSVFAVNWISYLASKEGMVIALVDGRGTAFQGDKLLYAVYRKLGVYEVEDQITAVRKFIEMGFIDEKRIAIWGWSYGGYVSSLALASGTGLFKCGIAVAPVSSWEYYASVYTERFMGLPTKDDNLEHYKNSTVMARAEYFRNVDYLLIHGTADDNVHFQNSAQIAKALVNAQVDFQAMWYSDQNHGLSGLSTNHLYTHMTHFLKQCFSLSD
Description: In order to determine the binding kinetics between ligands and human FAP protein (10464-H07H, Sino Biological Inc., Beijing, China), the Biacore SPR interaction study was conducted. The binding affinity is expressed by the equilibrium dissociation constant (KD) (M), which is calculated from the values of the measured binding rate constant (ka) (M^−1 s^−1) and dissociation rate (kd) (s^−1).

[2] = Octanol-water partition coefficient (n-octanol/PBS); format: physicochemical; conditions: n-octanol/PBS 1:1, ambient temperature
Description: Radiotracers [^68Ga]Ga-DOTA-FAPI-04 and [^18F]AlF-H3RESCA-FAPI (0.37 MBq, about 50 µL) were added to tubes containing n-octanol/PBS mixture (1 mL, 1:1). The mixture was vortexed vigorously for 5 min at ambient temperature and then centrifuged for five min at 8000 rpm. In each phase, three samples (each 50 µL) were removed and measured in γ-counter (PerkinElmer). The partition coefficient was expressed as an equation as follows:(1) LogD7.4=LogCPM(n−octanol)/CPM(PBS)

| Compound | Kd [1] [nM] | logD7.4 (octanol-water partition coefficient) [2] |
| --- | --- | --- |
| N#C[C@@H]1CC(F)(F)CN1C(=O)CNC(=O)c1ccnc2ccc(OCCCN3CCN(C(=O)Cc4ccc(CN(CC(=O)O)[C@@H]5CCCC[C@H]5N(CC(=O)O)CC(=O)O)cc4)CC3)cc12 [H3RESCA-FAPI, 2,2′-(((1R,2R)-2-((carboxymethyl)(4-(2-(4-(3-((4-((2-((S)-2-cyano-4,4-difluoropyrrolidin-1-yl)-2-oxoethyl)carbamoyl)quinolin-6-yl)oxy)propyl)piperazin-1-yl)-2-oxoethyl)benzyl)amino)cyclohexyl)azanediyl)diacetic acid] | < 0.0101 | – |
| N#C[C@@H]1CC(F)(F)CN1C(=O)CNC(=O)c1ccnc2ccc(OCCCN3CCN(C(=O)CN4CCN(CC(=O)[O-])CCN(CC(=O)O)CCN(CC(=O)[O-])CC4)CC3)cc12.[68Ga+3] [[^68Ga]Ga-DOTA-FAPI-04] | – | −3.53 ± 0.05 |

From PMC11859916, “Design, Synthesis, and Biological Evaluation of a Novel [^18F]AlF-H3RESCA-FAPI Radiotracer Targeting Fibroblast Activation Protein” (Pharmaceuticals, 2025)
